In PMC4334692 (Bioorganic & medicinal chemistry letters, 2015):

Assays:
[1] = target: T1, STEP (Homo sapiens, UniProt P54829); test: Second order rate of inactivation of STEP; type: biochemical; conditions: no GSH added; quadruplicate, mean ± S.D.
T1 sequence (P54829 1-565): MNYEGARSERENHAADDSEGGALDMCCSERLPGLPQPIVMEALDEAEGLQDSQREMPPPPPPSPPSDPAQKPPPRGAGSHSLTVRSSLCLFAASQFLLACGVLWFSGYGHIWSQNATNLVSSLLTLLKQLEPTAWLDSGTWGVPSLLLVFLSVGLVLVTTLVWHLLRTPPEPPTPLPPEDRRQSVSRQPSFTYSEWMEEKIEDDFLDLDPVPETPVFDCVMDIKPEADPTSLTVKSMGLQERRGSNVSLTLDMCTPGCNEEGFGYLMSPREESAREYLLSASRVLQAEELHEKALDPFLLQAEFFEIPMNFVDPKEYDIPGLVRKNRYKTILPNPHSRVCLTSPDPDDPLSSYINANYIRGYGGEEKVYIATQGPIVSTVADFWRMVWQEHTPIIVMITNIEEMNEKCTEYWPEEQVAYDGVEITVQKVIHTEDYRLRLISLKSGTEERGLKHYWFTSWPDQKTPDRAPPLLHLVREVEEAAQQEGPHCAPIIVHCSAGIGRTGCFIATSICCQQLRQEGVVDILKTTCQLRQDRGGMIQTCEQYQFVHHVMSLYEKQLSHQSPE

[2] = test system: rat cortical neurons; conditions: ref [4]; cited from earlier work
[3] = test system: Alzheimer's disease (AD) mice; conditions: novel object recognition and Morris water maze tests, ref [4]; cited from earlier work

Compound | Kinact/Ki [1] | phosphorylation levels of STEP substrates GluN2B, Pyk2 and ERK1/2 [2] | cognitive deficits [3]
O=C(Nc1cc(C(F)(F)F)cc2c1SSSSS2)C(F)(F)F [Compound 23] | 161,000 ± 26,000 M^-1S^-1 |  | 
Cl.Nc1cc(C(F)(F)F)cc2c1SSSSS2 [TC-2153, 8-(trifluoromethyl)-1,2,3,4,5-benzopentathiepin-6-amine hydrochloride] |  | enhanced the phosphorylation levels | reduced cognitive deficits
